Consider 12 molecules from patent US20240360146A1, “BRUTON'S TYROSINE KINASE AND MUTANT DEGRADER, COMPOSITION AND APPLICATION THEREOF” (HANGZHOU HEALZEN THERAPEUTICS CO., LTD., priority 2021, published 2024).

For series [1], the system named is Mino cells. In words: Inhibitory activity on Mino cell proliferation (MTS). Type of series: cell-based. The settings on record: Homo sapiens, 168 h incubation. Summed up:
(§1)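 Cells seeded at 10000/well, treated with compounds from 1000 nM (4-fold, 8 points) for 72 h (OCI-LY10) or 168 h (Mino) at 37° C. MTS added for 2 h, stopped with SDS, absorbance read at 490 and 650 nm; IC50 from dose-response fit.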

For series [2], the system named is OCI-LY10 cells. As to the kind of experiment: Inhibitory activity on OCI-LY10 cell proliferation (MTS). Type of series: cell-based. The settings on record: Homo sapiens, 72 h. Summed up: as §1
Series [3] addresses T1, BTK (Homo sapiens, UniProt Q06187).
T1 construct: endogenous in cells; host or cells: Mino cells
In words: BTK degradation activity test in Mino cells. The settings on record: 16 h incubation, Western blot or Elisa. The format is cell-based. Summed up: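 DC50 derived by curve fitting of BTK degradation rates versus untreated control across compound concentrations. Mino cells were exposed for 16 h; BTK levels in lysates, normalised via BCA protein, measured by Western blot or ELISA.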
On the technique in general: In western blotting, separated proteins are transferred to a membrane and probed.

The nature of series [4]: Stability of compounds in human liver microsome. Type of series: in vitro ADME. The settings on record: human liver microsomes, NADPH, 37° C., sampling 0-120 min; read-out: Human liver microsome T1/2. The protocol: Compound to be tested: the compound to be tested (1 mg) was dissolved in DMSO (10 mL) to formulate to 0.1 mg/mL.
Internal standard compound: the internal standard compound (1 mg) was dissolved in DMSO (10 mL), 10 μL was taken and diluted to 10 mL to formulate to 100 ng/mL.
NADPH solution: NADPH (2.08 mg) was dissolved in PBS (50 μL) buffer to formulate to 50 mM.
Under the condition of ice bath, 1 mg of human liver microparticles was add to PBS (1 mL) buffer, then NADPH (20 μL) was added, and incubated at 37° C. for 5 min. 10 μL of the compound to be tested was added, and then samples were taken at 0, 15, 30, 60 and 120 min respectively. 10 μL of the solution was taken with a pipette each time and added to 490 μL of the solution containing the internal standard compound. The resulting solution was vortexed and then placed on ice, and then sampling at another time point continues. All samples were centrifuged at 10,000 rpm for 10 min, and the supernatant was taken for LC/MS testing. The metabolism of the compound in liver microsomes was calculated based on the peak area.
Background: Liver microsomes are vesicles of endoplasmic reticulum, rich in cytochrome P450 enzymes.

A short description of series [5]: Mouse absorption test (pharmacokinetic properties in mice). The format is in vivo. The note with it: intragastric, 100 mg/kg. The protocol:
[…] The blood collection time points for intragastric administration were 0.25, 0.5, 1, 2, 4, 6, 8, and 24 h. 0.5 mL of blood was taken with a capillary tube from the orbit, and placed in an EP tube containing EDTA anticoagulant. The EP tube was shaken gently for mixing uniformly, and centrifuged at 3500 rpm and 4° C. for 10 min. The supernatant, i.e., plasma, was taken. Analysis was performed using LC-MS/MS.

T1 sequence (Q06187 whole entry): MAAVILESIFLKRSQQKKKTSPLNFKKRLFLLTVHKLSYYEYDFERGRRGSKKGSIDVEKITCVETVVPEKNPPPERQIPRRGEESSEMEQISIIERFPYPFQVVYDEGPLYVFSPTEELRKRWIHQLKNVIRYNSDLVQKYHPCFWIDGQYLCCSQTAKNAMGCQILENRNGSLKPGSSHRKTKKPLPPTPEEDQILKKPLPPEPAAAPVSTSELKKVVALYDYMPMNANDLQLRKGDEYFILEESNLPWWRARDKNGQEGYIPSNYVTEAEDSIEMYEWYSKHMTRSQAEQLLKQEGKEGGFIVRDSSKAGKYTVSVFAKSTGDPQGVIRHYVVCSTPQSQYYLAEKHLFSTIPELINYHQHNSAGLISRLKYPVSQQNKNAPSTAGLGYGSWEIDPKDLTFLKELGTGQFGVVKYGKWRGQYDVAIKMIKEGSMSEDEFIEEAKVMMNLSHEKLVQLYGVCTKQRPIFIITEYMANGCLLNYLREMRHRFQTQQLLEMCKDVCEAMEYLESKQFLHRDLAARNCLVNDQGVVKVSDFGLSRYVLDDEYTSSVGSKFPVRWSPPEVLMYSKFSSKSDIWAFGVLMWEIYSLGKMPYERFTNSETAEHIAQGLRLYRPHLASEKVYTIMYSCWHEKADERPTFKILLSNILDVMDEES

For the molecule `NC(=O)c1nnc(N2CCC[C@@H](N3CCN(CC(F)(F)F)C3=O)C2)nc1Nc1ccc(C2CCN(CC3CCN(c4ccc5c(c4)C(=O)N(C4CCC(=O)NC4=O)C5=O)C3)CC2)cc1` (stereo partly drawn) [Compound 140, 5-((4-(1-((1-(2-(2,6-dioxopiperidin-3-yl)-1,3-dioxoisoindolin-5-yl)pyrrolidin-3-yl)methyl)piperidin-4-yl)phenyl)amino)-3-((R)-3-(2-oxo-3-(2,2,2-trifluoroethyl)imidazolin-1-yl)piperidin-1-yl)-1,2,4-triazin-6-carboxamide], the IC50 in series [1] amounted to 3.46 nM; in series [2], 0.47 nM. The molecule further gave a DC50 in series [3] below 1 nM. Further, the half-life at 0.97 µg/mL in series [4] amounted to 26.3 min.
Turning to `NC(=O)c1nnc(N2CC3CC(N4C(=O)c5ccccc5C4=O)C2C3)nc1Nc1ccc(C2CCN(CC3CCN(c4ccc5c(c4)C(=O)N(C4CCC(=O)NC4=O)C5=O)CC3)CC2)cc1` (centres unmarked) [Compound 143, 3-(6-(1,3-dioxoisoindolin-2-yl)-2-azabicyclo[2.2.1]heptan-2-yl)-5-((4-(1-((1-(2-(2,6-dioxopiperidin-3-yl)-1,3-dioxoisoindolin-5-yl)piperidin-4-yl)methyl)piperidin-4-yl)phenyl)amino)-1,2,4-triazin-6-carboxamide], the IC50 in series [1] turned out to be 3.08 nM; in series [2], 0.33 nM. Also, the DC50 in series [3] was below 1 nM. The half-life at 0.97 µg/mL in series [4] came to 39.1 min.
On to `NC(=O)c1nnc(N2CC3CC(N4C(=O)c5ccccc5C4=O)C2C3)nc1Nc1ccc(C2CCN(CC3CCN(c4ccc5c(c4)C(=O)N(C4CCC(=O)NC4=O)C5=O)C3)CC2)cc1` (centres unmarked) [Compound 144, 3-(6-(1,3-dioxoisoindolin-2-yl)-2-azabicyclo[2.2.1]heptan-2-yl)-5-((4-(1-((1-(2-(2,6-dioxopiperidin-3-yl)-1,3-dioxoisoindolin-5-yl)pyrrolidin-3-yl)methyl)piperidin-4-yl)phenyl)amino)-1,2,4-triazin-6-carboxamide], for which the IC50 in series [1] and in series [2] was 3.49 nM throughout. In series [3], this molecule had a DC50 below 1 nM. Also, in series [4], the half-life at 0.97 µg/mL came to 146 min.
With `CN1CCN([C@@H]2CCCN(c3nnc(C(N)=O)c(Nc4ccc(N5CCN(CC6CCN(c7ccc(N8CCC(=O)NC8=O)cc7)C6)CC5)c(F)c4)n3)C2)C1=O` (stereo partly drawn) [Compound 147, 5-((4-(4-((1-(4-(2,4-dioxotetrahydropyrimidin-1(2H)-yl)phenyl)pyrrolidin-3-yl)methyl)piperazin-1-yl)-3-fluorophenyl)amino)-3-((R)-3-(3-methyl-2-oxoimidazolin-1-yl)piperidin-1-yl)-1,2,4-triazin-6-carboxamide], the IC50 was 0.54 nM in series [1] and 1.48 nM in series [2]. Besides, the DC50 in series [3] is below 1 nM. The half-life at 0.97 µg/mL in series [4] was above 30 min.
For `CN1CCN([C@@H]2CCCN(c3nnc(C(N)=O)c(Nc4ccc(N5CCN(CC6CCN(C(=O)c7ccc(F)c(N8CCC(=O)NC8=O)c7)C6)CC5)c(F)c4)n3)C2)C1=O` (stereo partly drawn) [Compound 148, 5-((4-(4-((1-(3-(2,4-dioxotetrahydropyrimidin-1(2H)-yl)-4-fluorobenzoyl)pyrrolidin-3-yl)methyl)piperazin-1-yl)-3-fluorophenyl)amino)-3-((R)-3-(3-methyl-2-oxoimidazolin-1-yl)piperidin-1-yl)-1,2,4-triazin-6-carboxamide], the IC50 in series [1] was determined as 7.79 nM; in series [2], 3.21 nM. In series [3], this molecule returned a DC50 below 1 nM. The half-life at 0.97 µg/mL in series [4] is above 30 min.
For `COc1ccc(C(=O)N2CCC(CN3CCN(c4ccc(Nc5nc(N6CCC[C@@H](N7CCN(C)C7=O)C6)nnc5C(N)=O)cc4F)CC3)C2)cc1N1CCC(=O)NC1=O` (stereo partly drawn) [Compound 149, 5-((4-(4-((1-(3-(2,4-dioxotetrahydropyrimidin-1(2H)-yl)-4-methoxybenzoyl)pyrrolidin-3-yl)methyl)piperazin-1-yl)-3-fluorophenyl)amino)-3-((R)-3-(3-methyl-2-oxoimidazolin-1-yl)piperidin-1-yl)-1,2,4-triazin-6-carboxamide], the IC50 in series [1] was 8.89 nM; in series [2] it was 2.6 nM. Also, the DC50 in series [3] is below 1 nM. For the same molecule, the half-life at 0.97 µg/mL in series [4] is above 30 min.
On the same counts, the results for `CN1CCN([C@@H]2CCCN(c3nnc(C(N)=O)c(Nc4ccc(N5CCN(CC6CCN(c7ccc(C(=O)N[C@H]8CCC(=O)NC8=O)nc7)CC6)CC5)c(F)c4)n3)C2)C1=O` [Compound 171, 5-((4-(4-((1-(6-(((S)-2,6-dioxopiperidin-3-yl)carbamoyl)pyridin-3-yl)piperidin-4-yl)methyl)piperazin-1-yl)-3-fluorophenyl)amino)-3-((R)-3-(3-methyl-2-oxoimidazolidin-1-yl)piperidin-1-yl)-1,2,4-triazin-6-carboxamide] are 3.43 nM, 2.65 nM, below 1 nM and above 30 min.
In the same order, the values of `CN1CCN([C@@H]2CCCN(c3nnc(C(N)=O)c(Nc4ccc(N5CCN(CC6CCN(c7ccc(C(=O)N[C@H]8CCC(=O)NC8=O)c(F)c7)CC6)CC5)c(F)c4)n3)C2)C1=O` [Compound 172, 5-((4-(4-((1-(4-(((S)-2,6-dioxopiperidin-3-yl)carbamoyl)-3-fluorophenyl)piperidin-4-yl)methyl)piperazin-1-yl)-3-fluorophenyl)amino)-3-((R)-3-(3-methyl-2-oxoimidazolidin-1-yl)piperidin-1-yl)-1,2,4-triazin-6-carboxamide] are 6.2 nM, 2.39 nM, below 1 nM and above 30 min.
In the same order, the values of `CN1CCN([C@@H]2CCCN(c3nnc(C(N)=O)c(Nc4ccc(N5CCN(CC6CCN(c7ccc(N8CCC(=O)NC8=O)nc7)CC6)CC5)c(F)c4)n3)C2)C1=O` [Compound 195, (R)-5-((4-(4-((1-(6-(2,4-dioxotetrahydropyrimidin-1(2H)-yl)pyridin-3-yl)piperidin-4-yl)methyl)piperazin-1-yl)-3-fluorophenyl)amino)-3-(3-(3-methyl-2-oxoimidazolidin-1-yl)piperidin-1-yl)-1,2,4-triazin-6-carboxamide] are 8.53 nM, 1.79 nM, below 1 nM and above 30 min.
Take `CN1CCN([C@@H]2CCCN(c3nnc(C(N)=O)c(Nc4ccc(N5CCN(CC6CCN(c7ccc(F)c(N8CCC(=O)NC8=O)c7)C6)CC5)c(F)c4)n3)C2)C1=O` (stereo partly drawn) [Compound 256, 5-((4-(4-((1-(3-(2,4-dioxotetrahydropyrimidin-1(2H)-yl)-4-fluorophenyl)pyrrolidin-3-yl)methyl)piperazin-1-yl)-3-fluorophenyl)amino)-3-((R)-3-(3-methyl-2-oxoimidazolidin-1-yl)piperidin-1-yl)-1,2,4-triazin-6-carboxamide]: the IC50 was 1.87 nM in series [1] and 1.6 nM in series [2]. For the same molecule, the 50% degradation concentration (DC50) in series [3] is below 1 nM. For the same molecule, the half-life at 0.97 µg/mL in series [4] is above 30 min.
In the case of `COc1ccc(N2CCC(CN3CCN(c4ccc(Nc5nc(N6CCC[C@@H](N7CCN(C)C7=O)C6)nnc5C(N)=O)cc4F)CC3)C2)cc1N1CCC(=O)NC1=O` (stereo partly drawn) [Compound 258, 5-((4-(4-((1-(3-(2,4-dioxotetrahydropyrimidin-1(2H)-yl)-4-methoxyphenyl)pyrrolidin-3-yl)methyl)piperazin-1-yl)-3-fluorophenyl)amino)-3-((R)-3-(3-methyl-2-oxoimidazolidin-1-yl)piperidin-1-yl)-1,2,4-triazin-6-carboxamide], the IC50 was 5.31 nM in series [1] and 0.96 nM in series [2]. Also, the DC50 in series [3] is below 1 nM. The half-life at 0.97 µg/mL in series [4] was above 30 min.
`CN1CCN([C@@H]2CCCN(c3cnc(C(N)=O)c(Nc4ccc(C5CCN(CC6CCN(c7ccc8c(c7)C(=O)N(C7CCC(=O)NC7=O)C8=O)CC6)CC5)cc4)n3)C2)C1=O` (some centres unmarked) [Compound b]: the DNAUC in series [5] (DNAUC = AUC/Dose) is reported as 631 ng/ml*h/mpk. In addition, in series [5] (mouse, plasma, po), the concentration peaked (Cmax) at 4030 ng/mL. Besides, the half-life at 0.97 µg/mL in series [4] is 5.18 min.

The term IC50 denotes the concentration needed to halve the response being measured. Read a high IC50 as weaker potency. The DC50 is the concentration giving 50% degradation. A low value points to a more potent degrader. As a reminder, the Cmax is the peak of the concentration-time curve.
